target: T1, human kinase Mps-1 (Homo sapiens, UniProt P33981); test: Mps-1 kinase assay (HTRF); type: biochemical; conditions: lowATP; mean; read-out: Mps1 lowATP mean IC50
T1 construct: N-terminally GST-tagged human full length recombinant Mps-1 kinase; purchased Invitrogen, Karslruhe, Germany PV4071
T1 sequence (P33981 1-857): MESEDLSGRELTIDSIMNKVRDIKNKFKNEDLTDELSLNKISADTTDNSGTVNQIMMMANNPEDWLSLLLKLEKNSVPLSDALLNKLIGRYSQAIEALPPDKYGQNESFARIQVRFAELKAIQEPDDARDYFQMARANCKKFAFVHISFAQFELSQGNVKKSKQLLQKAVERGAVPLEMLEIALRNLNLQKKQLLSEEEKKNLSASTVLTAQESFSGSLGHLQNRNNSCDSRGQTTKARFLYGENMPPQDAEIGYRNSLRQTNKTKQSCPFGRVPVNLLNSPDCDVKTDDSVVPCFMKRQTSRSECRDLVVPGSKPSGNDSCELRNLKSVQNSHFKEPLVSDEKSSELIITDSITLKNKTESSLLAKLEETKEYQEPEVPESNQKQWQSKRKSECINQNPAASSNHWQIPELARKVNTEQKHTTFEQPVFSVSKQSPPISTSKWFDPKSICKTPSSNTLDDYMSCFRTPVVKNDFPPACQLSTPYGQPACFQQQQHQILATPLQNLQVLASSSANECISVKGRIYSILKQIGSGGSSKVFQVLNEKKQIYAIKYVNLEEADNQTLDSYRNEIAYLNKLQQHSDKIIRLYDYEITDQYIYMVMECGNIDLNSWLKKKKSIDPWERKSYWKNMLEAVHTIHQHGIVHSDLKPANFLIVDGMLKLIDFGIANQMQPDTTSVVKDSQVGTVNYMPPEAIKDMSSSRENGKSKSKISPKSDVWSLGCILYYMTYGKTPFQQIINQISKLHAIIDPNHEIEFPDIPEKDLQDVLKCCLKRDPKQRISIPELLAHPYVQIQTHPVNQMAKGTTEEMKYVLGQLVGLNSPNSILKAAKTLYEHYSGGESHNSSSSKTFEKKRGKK
Method in brief: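 HTRF readout: EDTA-stopped reactions incubated 1 h with europium anti-phospho(Ser/Thr) antibody and streptavidin-XLent, emission ratio 665/620 nm after 350 nm excitation. Kinase step: compound pre-bound 15 min to ~1 nM GST-Mps-1, then 60 min at 22 °C with ATP and biotin-peptide substrate; inhibition scaled between no-inhibitor (0%) and no-enzyme (100%) controls.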

Going from Cc1cc2nc(NCC(C)C)c3ncc(-c4ccc(C(=O)NC5CC5)cc4)n3c2cc1C [Example 2-154, N-cyclopropyl-4-{7,8-dimethyl-4-[(2-methylpropyl)amino]imidazo[1,2-a]quinoxalin-1-yl}benzamide] to COCCCNc1nc2cc(C)c(C)cc2n2c(-c3ccc(C(=O)NC4CC4)cc3)cnc12 [Example 2-155, N-cyclopropyl-4-{4-[(3-methoxypropyl)amino]-7,8-dimethylimidazo[1,2-a]quinoxalin-1-yl}benzamide], the IC50 rises from 2.22 nM to 7.71 nM (3.5-fold).

First: Cc1cc2nc(NCc3ccn(C)n3)c3ncc(-c4ccc(C(=O)NC5CC5)cc4)n3c2cc1C [Example 2-156, N-cyclopropyl-4-(7,8-dimethyl-4-{[(1-methyl-1H-pyrazol-3-yl)methyl]amino}imidazo[1,2-a]quinoxalin-1-yl)benzamide]
Second: Cc1cc2nc(NCc3cnn(C)c3)c3ncc(-c4ccc(C(=O)NC5CC5)cc4)n3c2cc1C [Example 2-157, N-cyclopropyl-4-(7,8-dimethyl-4-{[(1-methyl-1H-pyrazol-4-yl)methyl]amino}imidazo[1,2-a]quinoxalin-1-yl)benzamide]
The IC50 of the first is 1.6-fold higher: 8.49 nM for the first, 5.44 nM for the second. The second is the more potent here.

CCCNc1nc2cc(C)c(C)cc2n2c(-c3ccc(NC(=O)NC)cc3)cnc12 [Example 2-159, 1-{4-[7,8-dimethyl-4-(propylamino)imidazo[1,2-a]quinoxalin-1-yl]phenyl}-3-methylurea] and CCNc1nc2cc(C)c(C)cc2n2c(-c3ccc(NC(=O)NC)cc3)cnc12 [Example 2-168, 1-{4-[4-(ethylamino)-7,8-dimethylimidazo[1,2-a]quinoxalin-1-yl]phenyl}-3-methylurea] are within 1.5-fold of each other in IC50: 163 nM for the first, 134 nM for the second.

First: CNC(=O)Nc1ccc(-c2cnc3c(NCCCN4CCOCC4)nc4cc(C)c(C)cc4n23)cc1 [Example 2-160, 1-[4-(7,8-dimethyl-4-{[3-(morpholin-4-yl)propyl]amino}imidazo[1,2-a]quinoxalin-1-yl)phenyl]-3-methylurea]
Second: CNC(=O)Nc1ccc(-c2cnc3c(NCCCCO)nc4cc(C)c(C)cc4n23)cc1 [Example 2-165, 1-(4-{4-[(4-hydroxybutyl)amino]-7,8-dimethylimidazo[1,2-a]quinoxalin-1-yl}phenyl)-3-methylurea]
The IC50 of the first is 3.7-fold higher: 982 nM for the first, 265 nM for the second.

Going from CNC(=O)Nc1ccc(-c2cnc3c(NCc4cccc(F)c4)nc4cc(C)c(C)cc4n23)cc1 [Example 2-161, 1-(4-{4-[(3-fluorobenzyl)amino]-7,8-dimethylimidazo[1,2-a]quinoxalin-1-yl}phenyl)-3-methylurea] to CNC(=O)Nc1ccc(-c2cnc3c(NCc4ccc(F)cc4)nc4cc(C)c(C)cc4n23)cc1 [Example 2-164, 1-(4-{4-[(4-fluorobenzyl)amino]-7,8-dimethylimidazo[1,2-a]quinoxalin-1-yl}phenyl)-3-methylurea], the IC50 falls from 1310 nM to 414 nM (3.2-fold).

First: CNC(=O)Nc1ccc(-c2cnc3c(NCCOC)nc4cc(C)c(C)cc4n23)cc1 [Example 2-162, 1-(4-{4-[(2-methoxyethyl)amino]-7,8-dimethylimidazo[1,2-a]quinoxalin-1-yl}phenyl)-3-methylurea]
Second: CNC(=O)Nc1ccc(-c2cnc3c(NCCC(N)=O)nc4cc(C)c(C)cc4n23)cc1 [Example 2-174, N^3-(7,8-dimethyl-1-{4-[(methylcarbamoyl)amino]phenyl}imidazo[1,2-a]quinoxalin-4-yl)-beta-alaninamide]
The IC50 of the first is 1.9-fold lower: 417 nM for the first, 782 nM for the second. The first is the more potent here.

First: CNC(=O)Nc1ccc(-c2cnc3c(NCc4ccccc4F)nc4cc(C)c(C)cc4n23)cc1 [Example 2-163, 1-(4-{4-[(2-fluorobenzyl)amino]-7,8-dimethylimidazo[1,2-a]quinoxalin-1-yl}phenyl)-3-methylurea]
Second: CNC(=O)Nc1ccc(-c2cnc3c(NCc4ccccc4)nc4cc(C)c(C)cc4n23)cc1 [Example 2-166, 1-{4-[4-(benzylamino)-7,8-dimethylimidazo[1,2-a]quinoxalin-1-yl]phenyl}-3-methylurea]
The IC50 of the first is 2.4-fold higher: 1470 nM for the first, 609 nM for the second.

Compared with CNC(=O)Nc1ccc(-c2cnc3c(NCc4cccs4)nc4cc(C)c(C)cc4n23)cc1 [Example 2-167, 1-(4-{7,8-dimethyl-4-[(thiophen-2-ylmethyl)amino]imidazo[1,2-a]quinoxalin-1-yl}phenyl)-3-methylurea], CNC(=O)Nc1ccc(-c2cnc3c(NCc4cccnc4)nc4cc(C)c(C)cc4n23)cc1 [Example 2-171, 1-(4-{7,8-dimethyl-4-[(pyridin-3-ylmethyl)amino]imidazo[1,2-a]quinoxalin-1-yl}phenyl)-3-methylurea] is 1.7-fold lower in IC50: 469 nM for the first, 283 nM for the second. The second is the more potent here.

First: CNC(=O)Nc1ccc(-c2cnc3c(NCCCn4ccnc4)nc4cc(C)c(C)cc4n23)cc1 [Example 2-169, 1-[4-(4-{[3-(1H-imidazol-1-yl)propyl]amino}-7,8-dimethylimidazo[1,2-a]quinoxalin-1-yl)phenyl]-3-methylurea]
Second: CNC(=O)Nc1ccc(-c2cnc3c(NCCS(N)(=O)=O)nc4cc(C)c(C)cc4n23)cc1 [Example 2-177, 2-[(7,8-dimethyl-1-{4-[(methylcarbamoyl)amino]phenyl}imidazo[1,2-a]quinoxalin-4-yl)amino]ethanesulfonamide]
The IC50 of the first is 8.2-fold lower: 274 nM for the first, 2240 nM for the second.

CNC(=O)Nc1ccc(-c2cnc3c(NCC4CC4)nc4cc(C)c(C)cc4n23)cc1 [Example 2-170, 1-(4-{4-[(cyclopropylmethyl)amino]-7,8-dimethylimidazo[1,2-a]quinoxalin-1-yl}phenyl)-3-methylurea] and CNC(=O)Nc1ccc(-c2cnc3c(NCC(C)C)nc4cc(C)c(C)cc4n23)cc1 [Example 2-173, 1-(4-{7,8-dimethyl-4-[(2-methylpropyl)amino]imidazo[1,2-a]quinoxalin-1-yl}phenyl)-3-methylurea] are within 1.5-fold of each other in IC50: 312 nM for the first, 209 nM for the second.

CNC(=O)Nc1ccc(-c2cnc3c(NCc4ccncc4)nc4cc(C)c(C)cc4n23)cc1 [Example 2-172, 1-(4-{7,8-dimethyl-4-[(pyridin-4-ylmethyl)amino]imidazo[1,2-a]quinoxalin-1-yl}phenyl)-3-methylurea] and CNC(=O)Nc1ccc(-c2cnc3c(NCc4ccnn4C)nc4cc(C)c(C)cc4n23)cc1 [Example 2-175, 1-[4-(7,8-dimethyl-4-{[(1-methyl-1H-pyrazol-5-yl)methyl]amino}imidazo[1,2-a]quinoxalin-1-yl)phenyl]-3-methylurea] are within 1.5-fold of each other in IC50: 260 nM for the first, 199 nM for the second.

Going from CNC(=O)Nc1ccc(-c2cnc3c(NCc4cnn(C)c4)nc4cc(C)c(C)cc4n23)cc1 [Example 2-176, 1-[4-(7,8-dimethyl-4-{[(1-methyl-1H-pyrazol-4-yl)methyl]amino}imidazo[1,2-a]quinoxalin-1-yl)phenyl]-3-methylurea] to CCCNc1nc2cc(C)c(C)cc2n2c(-c3ccc(C(=O)NC4CC4)c(Cl)c3)cnc12 [Example 2-178, 2-chloro-N-cyclopropyl-4-[7,8-dimethyl-4-(propylamino)imidazo[1,2-a]quinoxalin-1-yl]benzamide], the IC50 falls from 616 nM to 24.8 nM (25-fold).

First: Cc1cc2nc(NCCO)c3ncc(-c4ccc(C(=O)NC5CC5)c(Cl)c4)n3c2cc1C [Example 2-179, 2-chloro-N-cyclopropyl-4-{4-[(2-hydroxyethyl)amino]-7,8-dimethylimidazo[1,2-a]quinoxalin-1-yl}benzamide]
Second: Cc1cc2nc(NCCCCO)c3ncc(-c4ccc(C(=O)NC5CC5)c(Cl)c4)n3c2cc1C [Example 2-184, 2-chloro-N-cyclopropyl-4-{4-[(4-hydroxybutyl)amino]-7,8-dimethylimidazo[1,2-a]quinoxalin-1-yl}benzamide]
The IC50 of the first is 3.9-fold higher: 130 nM for the first, 33 nM for the second. The second is the more potent here.

Cc1cc2nc(NCCCN3CCOCC3)c3ncc(-c4ccc(C(=O)NC5CC5)c(Cl)c4)n3c2cc1C [Example 2-180, 2-chloro-N-cyclopropyl-4-(7,8-dimethyl-4-{[3-(morpholin-4-yl)propyl]amino}imidazo[1,2-a]quinoxalin-1-yl)benzamide] and Cc1cc2nc(NCCCN3CCCC3=O)c3ncc(-c4ccc(C(=O)NC5CC5)c(Cl)c4)n3c2cc1C [Example 2-182, 2-chloro-N-cyclopropyl-4-(7,8-dimethyl-4-{[3-(2-oxopyrrolidin-1-yl)propyl]amino}imidazo[1,2-a]quinoxalin-1-yl)benzamide] are within 1.5-fold of each other in IC50: 473 nM for the first, 444 nM for the second.

Going from Cc1cc2nc(NCCC(C)C)c3ncc(-c4ccc(C(=O)NC5CC5)c(Cl)c4)n3c2cc1C [Example 2-181, 2-chloro-N-cyclopropyl-4-{7,8-dimethyl-4-[(3-methylbutyl)amino]imidazo[1,2-a]quinoxalin-1-yl}benzamide] to COCCNc1nc2cc(C)c(C)cc2n2c(-c3ccc(C(=O)NC4CC4)c(Cl)c3)cnc12 [Example 2-183, 2-chloro-N-cyclopropyl-4-{4-[(2-methoxyethyl)amino]-7,8-dimethylimidazo[1,2-a]quinoxalin-1-yl}benzamide], the IC50 rises from 71.8 nM to 113 nM (1.6-fold).

From patent US8729082B2, “Substituted imidazoquinoxalines” (Bayer Intellectual Property GmbH, priority 2009, dated 2014)
